Consider 11 compounds from ChEMBL document CHEMBL1201862, “PubChem BioAssay data set” (2004).

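Results reflect a 48-hour exposure of cells in 96-well plates to compound at five concentrations. GI50 = concentration required for 50% inhibition of growth.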 Calls of active or inactive are those of the source. No stated cut-off is given here; in the data, active = GI50 up to about 1.1 µM and inactive = higher.

Some test systems named below: SK-OV-3; U-251; TK-10; UO-31; SK-MEL-5; EKVX; MOLT-4; SF-268; OVCAR-3; IGROV-1; DMS-273; SN12C; HT-29; Malme-3M; MDA-MB-435; OVCAR-4; T47D; Hs-578T; PC-3; HCT-116.
Holding throughout (test): NCI anticancer screen, dose series, 48 h

As for `O=C1C2Cc3ccccc3CN2C(=O)N1CN1CCN(CN2C(=O)C3Cc4ccccc4CN3C2=O)CC1` (centres undefined), the GI50 in the assay on SK-OV-3, in the assay with U-251, with TK-10, with UO-31, in the assay with SK-MEL-5 and in the assay on EKVX was > 100 µM (inactive) each time. The GI50 with MOLT-4, with SF-268, in the assay on OVCAR-3, in the assay on IGROV-1, in the assay on DMS-273 and in the assay with SN12C was > 100 µM (inactive) in each case. In addition, the GI50 in the assay on HT-29 and in the assay with Malme-3M was > 100 µM (inactive) throughout.
Turning to `Cn1c(=O)cc(NNc2ccc(Cl)c(Cl)c2)[nH]c1=O`, the GI50 in the assay on SK-OV-3 is 20.8 µM (inactive); in the assay on U-251, 12.4 µM (inactive); with MDA-MB-435, 3.31 µM (inactive); in the assay on TK-10 it was 16.7 µM (inactive); with OVCAR-4 it was 10.7 µM (inactive); in the assay on UO-31 it was 12.1 µM (inactive). In addition, the GI50 in the assay on SK-MEL-5 was 5.31 µM (inactive); with T47D, 4.99 µM (inactive); with EKVX, 10 µM (inactive); in the assay with Hs-578T, 20.4 µM (inactive); in the assay with MOLT-4 it was 14.5 µM (inactive); in the assay on SF-268, 27.9 µM (inactive). The GI50 in the assay with OVCAR-3 was 15.5 µM (inactive); in the assay on IGROV-1 it was 6.52 µM (inactive); with PC-3, 12.6 µM (inactive); in the assay on SN12C it was 4.34 µM (inactive); in the assay with HT-29, 18 µM (inactive); in the assay with HCT-116, 7.19 µM (inactive). For the same compound, the GI50 in the assay on Malme-3M is > 10 µM (inactive).
In the case of `CCOC(=O)CCC(C(=O)OCC)n1nnc2ccc(Nc3c(C)[n+]([O-])c4ccc(Cl)cc4[n+]3[O-])cc21` (centres undefined), the GI50 in the assay with SK-OV-3 is 60.1 µM (inactive); in the assay with U-251, 46.3 µM (inactive); with MDA-MB-435, 51.9 µM (inactive); in the assay on TK-10, 66.2 µM (inactive); in the assay with OVCAR-4, 33.8 µM (inactive); in the assay with UO-31, 42.2 µM (inactive). The GI50 in the assay on SK-MEL-5 was 39.4 µM (inactive); with T47D, 34 µM (inactive); in the assay with EKVX, 17.1 µM (inactive); in the assay on Hs-578T it was > 100 µM (inactive); with MOLT-4, 34.5 µM (inactive); with SF-268, 23.5 µM (inactive). For the same compound, the GI50 in the assay with OVCAR-3 is 32.1 µM (inactive); in the assay on IGROV-1, 40.5 µM (inactive); with PC-3, > 100 µM (inactive); in the assay with SN12C, 46.2 µM (inactive); in the assay on HT-29, 52.7 µM (inactive); in the assay with HCT-116 it was 40.2 µM (inactive). In addition, the GI50 with Malme-3M was > 100 µM (inactive).
On to `CON1C(=O)C2(CCCCC2)C(=O)C12C=CC(C)CC2` (centres undefined), for which the GI50 in the assay with SK-OV-3 was > 100 µM (inactive); in the assay on U-251, > 100 µM (inactive); with TK-10, > 100 µM (inactive); in the assay with UO-31, 47.4 µM (inactive); with SK-MEL-5, 38 µM (inactive); with EKVX it was 48.2 µM (inactive). The GI50 was 78.9 µM (inactive) with MOLT-4; > 100 µM (inactive) with SF-268; > 100 µM (inactive) in the assay on OVCAR-3; > 100 µM (inactive) in the assay on IGROV-1; > 100 µM (inactive) in the assay with DMS-273; > 100 µM (inactive) in the assay with SN12C. The GI50 in the assay on HT-29 was 62.5 µM (inactive); with Malme-3M it was > 100 µM (inactive).
In the case of `OCCc1ccsc1-c1sc(-c2cc(CCO)c(-c3sc(-c4cc(CCO)c(-c5sccc5CCO)s4)cc3CCO)s2)cc1CCO`, the GI50 in the assay with SK-OV-3 is 1.64 µM (inactive); in the assay with U-251, 0.957 µM (active); in the assay with MDA-MB-435 it was 1.32 µM (inactive); in the assay on TK-10, 1.55 µM (inactive); in the assay with OVCAR-4 it was 1.16 µM (inactive); with UO-31, 1.29 µM (inactive). In addition, the GI50 with SK-MEL-5 was 1.13 µM (inactive); with T47D, 1.3 µM (inactive); in the assay on EKVX it was 1.26 µM (inactive); with Hs-578T, 3.13 µM (inactive); with MOLT-4, 0.52 µM (active); with SF-268, 0.881 µM (active). Besides, the GI50 is 1.38 µM (inactive) in the assay with OVCAR-3; 1.21 µM (inactive) in the assay with IGROV-1; 1.28 µM (inactive) in the assay on PC-3; 1.85 µM (inactive) with SN12C; 1.77 µM (inactive) in the assay on HT-29; 0.889 µM (active) with HCT-116. The GI50 in the assay with Malme-3M is 1.14 µM (inactive).
On to `O=C(Nc1ccccc1)N(C1=NCC(CI)S1)c1ccc(F)cc1F` (centres undefined), for which the GI50 with SK-OV-3 was > 100 µM (inactive); in the assay on U-251, > 100 µM (inactive); in the assay on MDA-MB-435 it was 50.1 µM (inactive); with TK-10, 82.8 µM (inactive); in the assay with OVCAR-4, 43.6 µM (inactive); in the assay on UO-31, > 100 µM (inactive). For the same compound, the GI50 with SK-MEL-5 is 46 µM (inactive); in the assay on T47D, 15.3 µM (inactive); in the assay with EKVX it was > 100 µM (inactive); in the assay with Hs-578T it was > 100 µM (inactive); in the assay on MOLT-4, 21.6 µM (inactive); with SF-268, > 100 µM (inactive). Besides, the GI50 in the assay with OVCAR-3 was > 100 µM (inactive); in the assay with IGROV-1, 20.9 µM (inactive); with PC-3 it was 67.1 µM (inactive); with SN12C, 46.7 µM (inactive); in the assay on HT-29 it was 29.2 µM (inactive); in the assay on HCT-116, 55.2 µM (inactive). For the same compound, the GI50 with Malme-3M is > 100 µM (inactive).
Regarding `COc1cc(CCNC2=CC(=O)c3ncccc3C2=O)ccc1O`, the GI50 in the assay on SK-OV-3 is 12.6 µM (inactive); in the assay on U-251, 2.09 µM (inactive); in the assay on MDA-MB-435 it was 1.44 µM (inactive); in the assay on TK-10, 26.9 µM (inactive); with OVCAR-4, 4.79 µM (inactive); in the assay with UO-31, 5.3 µM (inactive). Moreover, the GI50 in the assay with SK-MEL-5 is 0.54 µM (active); in the assay with T47D it was 21.8 µM (inactive); in the assay with EKVX it was 8.85 µM (inactive); with Hs-578T it was 2.36 µM (inactive); in the assay on MOLT-4, 2.99 µM (inactive); with SF-268, 8.11 µM (inactive). The GI50 is 1.22 µM (inactive) in the assay on OVCAR-3; 2.29 µM (inactive) in the assay with IGROV-1; 2.65 µM (inactive) in the assay with PC-3; 1.97 µM (inactive) with SN12C; 4.2 µM (inactive) in the assay on HT-29; 3.17 µM (inactive) in the assay on HCT-116. Also, the GI50 with Malme-3M was 0.753 µM (active).
Take `COc1ccc(/N=N/N2CCCC2)cc1`: the GI50 in the assay on SK-OV-3 is > 100 µM (inactive); with U-251, > 100 µM (inactive); in the assay on MDA-MB-435, 70.6 µM (inactive); with TK-10, 57.1 µM (inactive); with OVCAR-4, 18.6 µM (inactive); in the assay with UO-31 it was 31.9 µM (inactive). Also, the GI50 in the assay with SK-MEL-5 is 30.4 µM (inactive); in the assay on T47D, 18.3 µM (inactive); in the assay with EKVX, 19.7 µM (inactive); with Hs-578T, 54.5 µM (inactive); in the assay on MOLT-4, 26.9 µM (inactive); with SF-268, 31.8 µM (inactive). In addition, the GI50 is 19.6 µM (inactive) with OVCAR-3; 14.9 µM (inactive) in the assay on IGROV-1; 36.5 µM (inactive) in the assay on PC-3; 21.7 µM (inactive) in the assay on SN12C; 40.2 µM (inactive) with HT-29; 20.1 µM (inactive) in the assay with HCT-116. For the same compound, the GI50 in the assay on Malme-3M was 17.6 µM (inactive).
As for `Cc1ccccc1C1CC(=O)CC(c2ccccc2C)C12C(=O)NC(=O)NC2=O` (centres undefined), the GI50 with SK-OV-3 is > 100 µM (inactive); with U-251 it was > 100 µM (inactive); in the assay on MDA-MB-435 it was > 77.8 µM (inactive); with TK-10 it was > 100 µM (inactive); in the assay with OVCAR-4, > 62.4 µM (inactive); in the assay on UO-31 it was > 100 µM (inactive). The GI50 was > 100 µM (inactive) with SK-MEL-5; > 100 µM (inactive) in the assay with T47D; > 100 µM (inactive) with EKVX; > 100 µM (inactive) with Hs-578T; > 78.5 µM (inactive) in the assay on MOLT-4; > 100 µM (inactive) in the assay with SF-268. Moreover, the GI50 was > 100 µM (inactive) in the assay on OVCAR-3; 62.5 µM (inactive) in the assay on IGROV-1; > 100 µM (inactive) in the assay with PC-3; 1.98 µM (inactive) with SN12C; > 100 µM (inactive) in the assay with HT-29; > 100 µM (inactive) with HCT-116. The GI50 in the assay on Malme-3M is > 100 µM (inactive).
For `Cc1nn(-c2ccccc2)c(C)c1/C=N/NC(=O)c1sc(=S)n(-c2ccccc2)c1N`, the GI50 with SK-OV-3 is 1.45 µM (inactive); in the assay with U-251, 4.7 µM (inactive); with MDA-MB-435, 4.47 µM (inactive); with TK-10 it was 1.63 µM (inactive); in the assay on OVCAR-4, 2.69 µM (inactive); in the assay with UO-31 it was 3.74 µM (inactive). For the same compound, the GI50 in the assay with SK-MEL-5 was 4.06 µM (inactive); in the assay with T47D, 4.2 µM (inactive); in the assay with EKVX, 3.39 µM (inactive); in the assay on Hs-578T, 1.85 µM (inactive); with MOLT-4, 5.58 µM (inactive); with SF-268, 5.22 µM (inactive). In addition, the GI50 with OVCAR-3 was 16.1 µM (inactive); in the assay with IGROV-1 it was 0.221 µM (active); in the assay with PC-3 it was 4.03 µM (inactive); in the assay on SN12C it was 6.28 µM (inactive); in the assay on HT-29, 2.69 µM (inactive); in the assay on HCT-116, 4.5 µM (inactive). Moreover, the GI50 in the assay with Malme-3M is 3.58 µM (inactive).
For `CC(C)=CCC[C@@H](C)C1=C(N)C(=O)C(C)=C(O)C1=O`, the GI50 with SK-OV-3 was 71.1 µM (inactive); in the assay with U-251 it was 31.8 µM (inactive); in the assay with MDA-MB-435 it was 44.8 µM (inactive); in the assay on TK-10, 53.1 µM (inactive); in the assay with OVCAR-4 it was 35.7 µM (inactive); in the assay on UO-31, 36 µM (inactive). The GI50 with SK-MEL-5 is 24.8 µM (inactive); in the assay with T47D, 42.9 µM (inactive); with EKVX it was 30.6 µM (inactive); in the assay with Hs-578T it was 34.9 µM (inactive); in the assay with MOLT-4 it was 19.5 µM (inactive); with SF-268, 27.4 µM (inactive). Also, the GI50 in the assay on OVCAR-3 was 33 µM (inactive); with IGROV-1 it was 29.9 µM (inactive); in the assay with PC-3 it was 54.3 µM (inactive); in the assay with SN12C it was 45.8 µM (inactive); with HT-29, 15.6 µM (inactive); in the assay on HCT-116, 27.6 µM (inactive). In addition, the GI50 in the assay with Malme-3M was 56.9 µM (inactive).
